Where a name gives a salt, the structure may show the parent alone.
Tests used:
[1] = test system: UM1 cells; assay: Clonogenic IC50, UM1; assay type: cell-based
[2] = test system: cells; assay: Cell Titer Blue % cell viable (24 hrs); assay type: cell-based; conditions: for viability at 30 µM / viability at 7.5 µM / viability at 15 µM: 24 h; for viability at 7.5 µM: Conc 7.5 μM; for viability at 15 µM: Conc 15 μM
Description: The viability of cells upon treatment was assessed by CellTiter-Blue® reagent following the manufacturer's protocol in RKO, UM10B, UM1, MCR5, and UMCC92 cells. Briefly, 10,000 cells were plated in 96-well plate in quadruplets. One day after seeding, cells were treated with a range of concentrations (0.1 to 30 micromolar). […] Only the viable cells convert the redox dye (reszurin) into a fluorescent product (resofurin). The emission of fluorescence (excitation 560 nm) was measured at […]. The IC50 value was calculated as the mean concentration of compounds required to inhibit cell proliferation as measured by the fluorescence at […] by 50 percent compared to the vehicle-treated controls.

[3] = test system: RKO cells; assay: Clonogenic IC50, RKO; assay type: cell-based; conditions: Homo sapiens
[4] = test system: UM10B cells; assay: Clonogenic IC50, UM10B; assay type: cell-based
[5] = test system: MCR5 cells; assay: Clonogenic IC50, MCR5; assay type: cell-based
Description: It was determined if the response to Compound 8C correlates with inhibition of EGF-induced dimerization and degradation of EGFR. For this, PC9-AZR cells were treated for 1 hour with 1 μM Compound 8C and an additional 30 minutes with EGF (30 ng/ml) and 30 minutes with disuccinimidyl suberate (DSS, 150 μM) to cross-link interacting proteins. Lysates were prepared and immunoblotted with anti-EGFR antibodies.
The viability of cells upon treatment was assessed by CellTiter-Blue® reagent following the manufacturer's protocol in RKO, UM10B, UM1, MCR5, and UMCC92 cells. Briefly, 10,000 cells were plated in 96-well plate in quadruplets. One day after seeding, cells were treated with a range of concentrations (0.1 to 30 micromolar). 3-days post-treatment, cells were incubated with the CellTiter-Blue® reagent for 4 hr. Only the viable cells convert the redox dye (reszurin) into a fluorescent product (resofurin). The emission of fluorescence (excitation 560 nm) was measured at […]. The IC50 value was calculated as the mean concentration of compounds required to inhibit cell proliferation as measured by the fluorescence at […] by 50 percent compared to the vehicle-treated controls.

[6] = test system: UMCC92 cells; assay: Clonogenic IC50, UMCC92; assay type: cell-based
[7] = test system: Ba/F3-AZR cells (L858R+T790M+C797S-EGFR); assay: Osimertinib resistant Ba/F3-AZR ascites tumor model; assay type: in vivo, nude mice; conditions: mouse, in vivo, 30 mg/kg

Row | Compound | IC50 [1] [µM] | viability at 30 µM ([2]; Conc 30 μM) [%] | IC50 [3] [µM] | IC50 [4] [µM] | IC50 ([5]; MCR5, MCR5) [µM] | other results
1 | COc1ccc(NC(=O)CSC2=NC3(CCN(C)CC3)N=C2c2ccc(Br)cc2)cn1 [Compound 8A, 2-((3-(4-bromophenyl)-8-methyl-1,4,8-triazaspiro[4.5]deca-1,3-dien-2-yl)thio)-N-(6-methoxypyridin-3-yl)acetamide] | 1 | 58 | 8.8 |  |  | 
2 | CN1CCC2(CC1)N=C(SCC(=O)Nc1ccc(F)c(F)c1)C(c1ccc(Br)cc1)=N2 [Compound 29] |  | 89 | 1.4 | 0.7 | 3.3 | 
3 | COc1cc(NC(=O)CSC2=NC3(CCN(C)CC3)N=C2c2ccc(C)cc2)ccc1Cl [Compound 19] |  |  | 3.1 | 2.6 | 4.1 | viability at 7.5 µM [2]: 68%
4 | COc1ccc(C2=NC3(CCNCC3)N=C2SCC(=O)Nc2ccc(OC)nc2)cc1 [Compound 11, 2-((3-(4-methoxyphenyl)-1,4,8-triazaspiro[4.5]deca-1,3-dien-2-yl)thio)-N-(6-methoxypyridin-3-yl)acetamide hydrochloride] | 1.3 | 52 | 26 |  |  | 
5 | Cc1ccc(C2=NC3(CCN(C)CC3)N=C2SCC(=O)Nc2ccc3c(c2)OCO3)cc1 [Compound 24] |  | 72 | 5.4 | 4.3 | 7.6 | 
6 | Cc1ccc(C2=NC3(CCN(C)CC3)N=C2SCC(=O)Nc2ccc3c(c2)OCCO3)cc1 [Compound 23] |  | 103 | 2.2 | 5.3 | 5.4 | 
7 | CN1CCC2(CC1)N=C(SCC(=O)Nc1ccc(F)c(F)c1)C(c1ccc(Cl)cc1)=N2 [Compound 26] |  | 88 | 2.6 | 1.1 | 1.3 | 
8 | Cc1ccc(C2=NC3(CCN(C)CC3)N=C2SCC(=O)Nc2ccc(F)c(F)c2)cc1 [Compound 25] |  | 78 | 3.7 | 2.6 | 69.3 | IC50 [6]: 2.1 µM
9 | CN1CCC2(CC1)N=C(SCC(=O)Nc1ccc(F)c(F)c1)C(c1ccc(C(C)(C)C)cc1)=N2 [Compound 28] |  |  | 6.5 | 1 | 1.3 | viability at 15 µM [2]: 15%
10 | COc1ccc(C2=NC3(CCN(C)CC3)N=C2SCC(=O)Nc2ccc(OC)c(Cl)c2)cc1 [Compound 20] |  |  | 1.8 | 4 | 2.4 | viability at 15 µM [2]: 54%
11 | CN1CCC2(CC1)N=C(SCC(=O)NCc1ccccc1)C(c1ccc(Br)cc1)=N2 [Compound 8G, N-benzyl-2-((3-(4-bromophenyl)-8-methyl-1,4,8-triazaspiro[4.5]deca-1,3-dien-2-yl)thio)acetamide] | 1.6 | 40 | 8.5 |  |  | 
12 | COc1ccc(C2=NC3(CCN(C(=O)OC(C)(C)C)CC3)N=C2SCC(=O)Nc2ccc(OC)nc2)cc1 [Compound 10, tert-Butyl 2-(4-methoxyphenyl)-3-((2-((6-methoxypyridin-3-yl)amino)-2-oxoethyl)thio)-1,4,8-triazaspiro[4.5]deca-1,3-diene-8-carboxylate] | 1.7 | 81 | 21.8 |  |  | 
13 | CN1CCC2(CC1)N=C(SCC(=O)Nc1ccncc1)C(c1ccc(Br)cc1)=N2 [Compound 8D, 2-((3-(4-bromophenyl)-8-methyl-1,4,8-triazaspiro[4.5]deca-1,3-dien-2-yl)thio)-N-(pyridin-4-yl)acetamide] | 0.8 |  | 7.3 |  |  | viability at 7.5 µM [2]: 64%
14 | COc1ccc(C2=NC3(CCN(C)CC3)N=C2SCC(=O)Nc2ccc(OC)nc2)cc1 [Compound 12, 2-((3-(4-methoxyphenyl)-8-methyl-1,4,8-triazaspiro[4.5]deca-1,3-dien-2-yl)thio)-N-(6-methoxypyridin-3-yl)acetamide] | 1.2 | 78 | 34 |  |  | 
15 | C=CC(=O)Nc1cc(Nc2nccc(-c3cn(C)c4ccccc34)n2)c(OC)cc1N(C)CCN(C)C [osimertinib, reference compound] |  |  |  |  |  | survival [7]: no difference
16 | CN1CCC2(CC1)N=C(SCC(=O)NC1CCCCC1)C(c1ccc(Br)cc1)=N2 [Compound 8E, 2-((3-(4-bromophenyl)-8-methyl-1,4,8-triazaspiro[4.5]deca-1,3-dien-2-yl)thio)-N-cyclohexylacetamide] | 1.9 | 84 | 14.1 |  |  | 
17 | CN1CCC2(CC1)N=C(SCC(=O)NC1CCCC1)C(c1ccc(Br)cc1)=N2 [Compound 8F, 2-((3-(4-bromophenyl)-8-methyl-1,4,8-triazaspiro[4.5]deca-1,3-dien-2-yl)thio)-N-cyclopentylacetamide] | 1 | 62 | 17.4 |  |  | 
18 | CC1(C)N=C(SCC(=O)Nc2ccc(Cl)c(Cl)c2)C(c2ccc(Cl)c(Cl)c2)=N1 [Compound 18] |  | 48 | 6.7 | 2.5 | 25.9 | 
19 | Cc1ccc(C2=NC3(CCCCC3)N=C2SCC(=O)Nc2ccc(F)c(Cl)c2)cc1 [Compound 32] |  | 104 | 8 | 4 | 15 | 
20 | CN1CCC2(CC1)N=C(SCC(=O)Nc1ccc(F)c(F)c1)C(c1ccc(F)cc1)=N2 [Compound 27] |  | 76 | 19 | 8.8 | 4.1 | 
21 | COc1ccc(NC(=O)CSC2=NC3(CCN(C)CC3)N=C2c2ccc(F)cc2)cc1Cl [Compound 21] |  |  | 85 | 4.3 | 0.3 | viability at 15 µM [2]: 73%
22 | CN1CCC2(CC1)N=C(SCC(=O)Nc1ccc(Cl)nc1)C(c1ccc(Br)cc1)=N2 [Compound 8B, 2-((3-(4-bromophenyl)-8-methyl-1,4,8-triazaspiro[4.5]deca-1,3-dien-2-yl)thio)-N-(6-chloropyridin-3-yl)acetamide] | 0.8 |  | 5.3 |  |  | viability at 15 µM [2]: 50%
23 | COc1ccc(C2=NC3(CCN(C)CC3)N(CC(=O)Nc3ccc(OC)c(Cl)c3)C2=O)cc1 [Compound 5, N-(3-chloro-4-methoxyphenyl)-2-(3-(4-methoxyphenyl)-8-methyl-2-oxo-1,4,8-triazaspiro[4.5]dec-3-en-1-yl)acetamide] | 0.9 |  | 11.6 |  |  | viability at 15 µM [2]: 60%; IC50 [6]: 34 µM
24 | COc1ccc(NC(=O)CN2C(=O)C(c3ccc(C(C)(C)C)cc3)=NC2(C)C)cc1Cl [Compound 15] |  | 119 | 50.7 | 17.2 | 37 | 
25 | COc1ccc(C2=NC3(CCNCC3)N(CC(=O)Nc3ccc(OC)c(Cl)c3)C2=O)cc1 [Compound 4, N-(3-chloro-4-methoxyphenyl)-2-(3-(4-methoxyphenyl)-2-oxo-1,4,8-triazaspiro[4.5]dec-3-en-1-yl)acetamide hydrochloride] | 1 |  | 7.6 |  |  | viability at 15 µM [2]: 61%
26 | CC1(C)N=C(c2ccc(F)cc2)C(=O)N1CC(=O)Nc1ccc(F)c(Cl)c1 [Compound 13] |  |  | 25.2 | 6.9 |  | IC50 ([5]; MCR5): 335 µM; % Cell viable (24 hrs) ([2]; Conc 30 μM): 59.4%
27 | COc1ccc(NC(=O)CSC2=NC3(CCN(C)CC3)N=C2c2ccc(C(C)(C)C)cc2)cc1Cl [Compound 22] |  |  | 0.8 | 0.3 | 2.3 | viability at 7.5 µM [2]: 55%; IC50 [6]: 0.2 µM
28 | COc1ccc(C2=NC3(CCN(C(=O)OC(C)(C)C)CC3)N(CC(=O)Nc3ccc(OC)c(Cl)c3)C2=O)cc1 [Compound 3, tert-Butyl 4-(2-((3-chloro-4-methoxyphenyl)amino)-2-oxoethyl)-2-(4-methoxyphenyl)-3-oxo-1,4,8-triazaspiro[4.5]dec-1-ene-8-carboxylate] | 7.8 | 70 | 9.8 |  |  | 
